According to patent US9402821B2, “Methods and pharmaceutical compositions for treatment of cystic fibrosis” (INSERM (Institut National de la sante et de la Recherche …, priority 2012, dated 2016):
“Also recorded” adds a separate entry of the source.

Columns and labels:
Format in all cases: cell-based
[1] = target: CFTR (Homo sapiens, UniProt P13569); test: CFTR maturation by Western blot of membrane extracts; parameters: expressed in transfected cells; details: for Ratio CFTR C/C + B (%): HeLa CFTR WT, Ctr. 65.1
CFTR, sequence (P13569 whole entry): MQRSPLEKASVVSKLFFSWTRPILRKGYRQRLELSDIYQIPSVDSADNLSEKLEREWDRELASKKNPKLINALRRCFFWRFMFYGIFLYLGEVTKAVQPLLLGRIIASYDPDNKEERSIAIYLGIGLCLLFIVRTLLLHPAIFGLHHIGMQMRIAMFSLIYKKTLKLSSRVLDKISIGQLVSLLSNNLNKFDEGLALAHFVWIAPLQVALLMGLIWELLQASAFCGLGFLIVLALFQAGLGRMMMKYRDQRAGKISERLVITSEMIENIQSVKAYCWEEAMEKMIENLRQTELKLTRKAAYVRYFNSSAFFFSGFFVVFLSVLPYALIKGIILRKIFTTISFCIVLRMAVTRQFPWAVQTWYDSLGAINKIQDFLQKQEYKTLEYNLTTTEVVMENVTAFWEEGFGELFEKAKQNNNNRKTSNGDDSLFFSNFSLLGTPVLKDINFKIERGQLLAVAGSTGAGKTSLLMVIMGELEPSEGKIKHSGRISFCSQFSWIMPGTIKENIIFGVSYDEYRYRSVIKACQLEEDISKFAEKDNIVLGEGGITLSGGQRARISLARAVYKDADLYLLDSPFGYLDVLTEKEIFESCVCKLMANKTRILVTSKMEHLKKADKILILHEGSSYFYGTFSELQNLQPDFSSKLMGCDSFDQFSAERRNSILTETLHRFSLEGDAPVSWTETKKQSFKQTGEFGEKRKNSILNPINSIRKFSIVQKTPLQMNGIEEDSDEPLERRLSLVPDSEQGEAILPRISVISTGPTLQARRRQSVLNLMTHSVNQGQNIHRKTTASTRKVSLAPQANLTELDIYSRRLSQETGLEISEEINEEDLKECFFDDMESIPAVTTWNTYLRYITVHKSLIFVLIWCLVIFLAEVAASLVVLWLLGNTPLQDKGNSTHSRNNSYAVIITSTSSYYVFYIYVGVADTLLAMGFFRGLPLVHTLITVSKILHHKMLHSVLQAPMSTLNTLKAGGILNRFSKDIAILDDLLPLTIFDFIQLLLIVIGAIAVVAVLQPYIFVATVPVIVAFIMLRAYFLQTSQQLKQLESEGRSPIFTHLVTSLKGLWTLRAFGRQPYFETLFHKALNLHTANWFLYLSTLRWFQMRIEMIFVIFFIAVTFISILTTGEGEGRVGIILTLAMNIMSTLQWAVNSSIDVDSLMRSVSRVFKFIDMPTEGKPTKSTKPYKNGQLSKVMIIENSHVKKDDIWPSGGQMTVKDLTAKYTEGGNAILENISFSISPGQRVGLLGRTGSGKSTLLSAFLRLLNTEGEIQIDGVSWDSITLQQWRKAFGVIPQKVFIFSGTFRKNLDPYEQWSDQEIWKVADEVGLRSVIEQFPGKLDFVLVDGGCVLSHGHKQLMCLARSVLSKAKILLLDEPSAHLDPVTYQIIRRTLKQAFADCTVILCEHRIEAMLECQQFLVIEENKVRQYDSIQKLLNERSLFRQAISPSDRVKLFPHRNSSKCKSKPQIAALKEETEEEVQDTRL
Method: B. Chloride activity in HeLa Wt cells was measured by MQAE assay, after 3 h of treatment by NSAID (500 μM) or diluent. CFTR activity was expressed in rate of UFA/sec, calculated by difference between ((Ft−F0)/t) with CFTR induction and ((Ft−F0)/t) without CFTR induction. […] C. Primary culture of human nasal epithelial cell (HNEC) grown on Snapwell filters (air-liquid interface) were exposed basolaterally to sulindac (500 μM) or vehicle for 2 h and immediately mounted into a voltage-clamp system to bioelectric measurements. Short circuit current was measured with addition of amiloride to evaluated amiloride sensitive transport or with forskolin and IBMX for induced cAMP-dependent Cl secretion.
To study the CFTR protein present at the cell membrane, a protocol of purification by differential centrifugations was used. CFTR wt and delta F508 HeLa cells (2×10^5 cells/cm^2) were lysed with hypotonic lysis buffer (10 mM de KCl, 1 mM de MgCl2, 10 mM Hepes pH 7, 4 and protease inhibitor). Mechanic lysis of cells was realized with minimum 10 strokes of a 26G syringe. Samples were centrifuged 10 min at 3000 g to eliminate cellular fragments and nuclear fraction in the pellet. Then supernatant was centrifuged 45 min at 50 000 g. The pellets with cellular membrane were resolubilized in RIPA buffer.
Aliquots of membrane cell extracts (30 μg protein) were separated by 7% SDS-PAGE and transferred on PVDF membrane. The western blots were probed with mouse monoclonal antibodies specific for CFTR (MM13-4, Millipore) 2 h at room temperature.

[2] = tested on: IL-8 secretion; test: IL-8 release into supernatant of cell cultures; details: TNFα; Beas2B, Calu-3 and heterologous HeLa systems (FIG. 2C)
Method: Cells were transiently transfected by the short IL-8 promoter-firefly luciferase reporter and renilla luciferase reference and inflammation was induced by 10 ng/ml TNFα for 1 h. A. HeLa cells were pre-treated with diluent or different doses of sulindac 1 h before inflammation induction and 4 h after. IL-8 promoter activity in cells treated with sulindac+TNFα was expressed in percent of diluent+TNFα. B. After treatment, HeLa Ctr cells were lysed with TRIzol (Invitrogen). Total RNA was extracted, and 1 μg of total RNA was reverse transcribed with a reverse transcription kit. IL-8 mRNA expression was quantified by real-time quantitative PCR (qPCR). The comparative threshold cycle (CT) method was used for relative quantification of PCR products after IL-8 was normalised to TBP (ΔCt=CtIL-8−CtTBP). IL-8 mRNA data in treated samples were expressed in fold changes over controls: fold changetreated sample=2^−ΔΔCt (with ΔΔCt=ΔCtreated sample−ΔCtcontrol). C After treatment, IL-8 in supernatant was measured by ELISA. The IL-8 stimulation of cells treated with test drug +TNFα were expressed as fold compared to drug −TNFα. […]
IL-8 secretion into the supernatant of cells cultures was measured with the IMMULITE 1000 Automated Analyser (Diagnostic Products Corp) and the commercially available Immulite chemiluminescent enzyme immunometric assays (Immulite®) according to the manufacturer's instructions.

[3] = tested on: p65; test: Western blot of nuclear p65 after TNFα; details: HeLa control cells; 500 μM 1 h pre-treatment; TNFα 10 ng/ml 30 min
Method: HeLa control cells were pre-treated with diluent (0.5%) or sulindac (500 μM) for 1 h and stimulated or not with 10 ng/ml TNFα for 30 min. Nuclear and cytosolic fractions were obtained by differential centrifugation. A. Analysis by western blot of cytosolic IKb quantity. The Iκb quantity was expressed in percent of control. […] B. Analysis by western blot of nuclear p65 quantity. Nuclear p65 quantity was expressed in percent of diluents+TNFα.
Nuclear and cytosolic fraction was obtained by differential centrifugation. Briefly, cells were lyses in buffer C (10 mM Hepes, 60 mM KCl, 1 mM EDTA, 7.8% NP40, 100 mM DTT, pH 7.6). After centrifugation, nucleus pellet were lyses in buffer N (27 mM Tris, 566 mM NaCl, 2 mM MgCl2, 1.3 mM EDTA, pH 8). Aliquots of fraction (30 μg protein) were separated by SDS-PAGE and transferred on PVDF membrane. The western blots were probed with mouse monoclonal antibodies specific for IκB or p65 (Santa-Cruz) 2 h at room temperature.

CC1=C(CC(=O)O)c2cc(F)ccc2/C1=C\c1ccc([S+](C)[O-])cc1 (centres unmarked) [sulindac, (Z)-5-fluoro-2-methyl-1-[p-(methylsulfinyl)benzylidene]-indene-3-acetic acid]
Ratio CFTR C/C + B (%) ([1]; 250 μM): 77.7%
Ratio CFTR C/C + B (%) ([1]; 500 μM): 81.5%
mature form of CFTR (Western blot) ([1]; WT-CFTR HeLa cells, 500 μM): significant increase of mature form of CFTR
IL-8 secretion [2]: decrease of IL-8 secretion
nuclear translocation of NF-κB (nuclear p65 quantity) [3]: not significantly modified; also recorded: did not prevent the nuclear translocation of NF-κB
